Assay results from patent US6660830B1, “Peptides with antiproliferative properties” (priority 1996, dated 2003).
Positions of bridges follow the written chain, without caps; N, C: chain ends. Non-standard residues stand in square brackets, D forms with d. Chains are numbered I, II in the order given. No end group written: not given here.

Assays:
MCF-7 cells [1] = assay: Cell cycle distribution by FACS in MCF-7 breast cancer cells; assay type: cell-based; settings: for morphology of treated cells: peptide 10^-5 M (FIG. 2, 4, 7, 11, 12); for effect on S phase (words, summary of Table 1): MCF-7 stimulated by IGF-1 10^-8 M or insulin 10^-6 M; for effect on S phase (words, summary of Table 1) / G1 (cell population in G1 phase) / G2/M (cell population in G2/M phase) / S (cell population in S phase): peptide 10^-5 M; for G1 (cell population in G1 phase) / G2/M (cell population in G2/M phase) / S (cell population in S phase): FACS
Description: (§1) The experimental setting comprises experiments with the breast cancer cell line MCF-7 containing an intact retinblastoma protein and the human osteosarcoma cell line SAOS-2 containing a defective retinoblastoma protein. Cells are seeded in 12-well plates at 100000 (=one hundred thousand) cells/well/ml in RPMI medium or DMEM medium containing 10% FCS and allowed to adhere for 24 hours. Subsequently, the cells are starved by incubation for 3 days in DMEM without FCS, such that they are synchronized in the G0/G1 phase and then the cells are stimulated by 10% FCS or 10^−8 M IGF-1 or 10^−6 M insulin, respectively, for 24 hours. The effect of each of the added peptides on each of the above modes of stimulation, which effect reflects the rate of cell division, is investigated. The control (cells synchronized in G0/G1) is fixed at time 0 after three days of starvation. The remaining cells (+/−peptide) are fixed after 24 hours. The cells are subsequently analyzed by FACS for their cell cycle distribution. Analogous methods are to be found e.g. in R. Fahraeus et al., Current Biology, 1996, vol. 6, no. 1, pp. 84-91 and L. Zhu et al., Genes & Development, 1993, vol. 7, pp. 1111-1125.

CCRF-CEM cells = assay: Cytotoxicity by the trypan blue method in CCRF-CEM sensitive leukemia cells; assay type: cell-based; settings: asynchronously growing CCRF-CEM sensitive cells, RPMI 10% FCS; peptide 10^-5 M (FIG. 14)
Description: (§2) The second experimental setting relates to the leukemia cell lines K562 and CCRF-CEM and CCRF-CEM/ACT400. 100000 asynchronously growing cells/well/ml RPMI/10% FCS have each been incubated for 48 hours with each of the peptides in 6-well plates. As a readout, the number of dead cells/200 counted cells is determined according to the trypan blue method (L. D. Attardi et al., The EMBO Journal, 1996, vol. 15, no. 14, pp. 3693-3701 and M. K. Reeder & H. C. Isom, Cell Growth & Differentiation 196, vol. 7, pp. 449-460) after this 48-hour incubation.

K562 cells = assay: Cytotoxicity by the trypan blue method in K562 leukemia cells; assay type: cell-based; settings: asynchronously growing K562 in RPMI; peptide 10^-5 M (FIG. 13)
Description: The results have been plotted as the living cells treated with P3 being a percentage of the living cells not treated with P3. The number of the living cells has been determined by counting at least 200 cells at each time point according to the trypan blue method.
as §2

[2] = tested on: normal human peripheral blood mononuclear cells; assay: Effect on normal peripheral blood mononuclear cells; assay type: cell-based; settings: peptide 10^-5 M, 24 hours (FIG. 15)
Description: The incubation of cells with P3 was performed for a time period of 24 hours.

MCF-7 cells [3] = assay: Cell cycle distribution by FACS in MCF-7 breast cancer cells; assay type: cell-based
CCRF-CEM/ACT 400 cells = assay: Cytotoxicity by the trypan blue method in CCRF-CEM/ACT 400 resistant leukemia cells; assay type: cell-based; settings: asynchronously growing CCRF-CEM/ACT 400 resistant cells, RPMI 10% FCS; peptide 10^-5 M (FIG. 14)
Description: as §2

SAOS-2 cells [4] = assay: Cell cycle distribution by FACS in SAOS-2 osteosarcoma cells; assay type: cell-based, human; settings: for effect on cell cycle phases (words, summary of Table 2): peptide 5x10^-5 M each; for G1 (cell population in G1 phase) / G2/M (cell population in G2/M phase) / S (cell population in S phase): SAOS-2 synchronized in G0/G1, stimulated by 10% FCS for 24 h, peptide 5x10^-5 M, FACS
Description: as §1

SAOS-2 cells [5] = assay: as above; assay type: cell-based, human; settings: SAOS-2 synchronized in G0/G1, serum-free conditions; peptide 10^-5 M (FIG. 8)
[6] = MCF-7 stimulated by IGF-1 10^-8 M
[7] = MCF-7 stimulated by IGF-1 10^-8 M, peptide 10^-5 M (FIG. 2, 4, 11, 12)
[8] = MCF-7 synchronized in G0/G1, serum-free conditions, peptide 10^-5 M (FIG. 1, 3)
[9] = MCF-7 stimulated by EGF 10^-8 M, peptide 10^-5 M (FIG. 6)
[10] = MCF-7 stimulated by estradiol (E2) 10^-9 M, peptide 10^-5 M (FIG. 6)
[11] = asynchronously growing MCF-7 in DMEM containing 10% FCS, peptide 10^-5 M (FIG. 10)
[12] = SAOS-2 stimulated by 10% FCS, peptide 10^-5 M (FIG. 9)
[13] = MCF-7 synchronized in G0/G1, stimulated by IGF-1 10^-8 M for 24 h
[14] = MCF-7 synchronized in G0/G1, stimulated by insulin 10^-6 M for 24 h

Substance	morphology of treated cells (MCF-7 cells [1]; [6])	effect on cell cycle phases (MCF-7 cells [1]; [7])	effect on cell cycle phases (MCF-7 cells [1]; [8])	morphology of treated cells (MCF-7 cells [3]; [8])	effect on S phase (words, summary of Table 1) (MCF-7 cells [1])	G1 (cell population in G1 phase) (MCF-7 cells [1]; [13])	G2/M (cell population in G2/M phase) (MCF-7 cells [1]; [13])	S (cell population in S phase) (MCF-7 cells [1]; [13])	effect on cell cycle phases (words, summary of Table 2) (SAOS-2 cells [4]; SAOS-2 stimulated by 10% FCS)	G1 (cell population in G1 phase) (SAOS-2 cells [4])	G2/M (cell population in G2/M phase) (SAOS-2 cells [4])	S (cell population in S phase) (SAOS-2 cells [4])	also measured
I: [dL][dF][dY][dK][dK][dV]GGGK[dR]GKG / II: [dL][dF][dY][dK][dK][dV]GGGK[dR]G / III: [dL][dF][dY][dK][dK][dV]GGG / IV: [dL][dF][dY][dK][dK][dV]GGG (amide I:10-IV:C, I:13-II:C, II:10-III:C) [P3, NH2-[dLdFdYdKdKdV-GGG]4-[1KdRG]2-1KG-COOH]	corresponds to that of apoptotic cells	increase of the G1 and G2/M phases as well as in a decrease of the S phase	reduces the G1 phase and increases the S phase	corresponds to that of apoptotic cells	–	–	–	–	–	–	–	–	cytotoxic effect (CCRF-CEM cells): act in a cytotoxic manner; cytotoxic effect (living treated cells as percentage of living untreated cells, trypan blue) (K562 cells): time-dependent; effect on normal cells ([2]; activated state (b)): no effect; morphological changes of treated cells ([2]; quiescent or activated): do not show any morphological changes; effect on normal cells ([2]; quiescent state (a)): no effect; morphology of treated cells (MCF-7 cells [3]; MCF-7, IGF-1 10^-8 M, peptide 5x10^-6 M (FIG. 7)): corresponds to that of apoptotic cells; blocks the progression of the cell cycle caused by IGF-1 (MCF-7 cells [3]; MCF-7, IGF-1 10^-8 M, several peptide concentrations (FIG. 7)): in a dose-dependent manner; effect on cell cycle phases (MCF-7 cells [3]; [9]): increases the G1- and the G2 phases as well as decreases the S phase; morphology of treated cells (MCF-7 cells [3]; [9]): corresponds to that of apoptotic cells; effect on cell cycle phases (MCF-7 cells [3]; [10]): increases the G1- and the G2 phases as well as decreases the S phase; morphology of treated cells (MCF-7 cells [3]; [10]): corresponds to that of apoptotic cells; effect on cell cycle phases (MCF-7 cells [3]; [11]): reduces the G1 phase and increases the S phase; morphology of treated cells (MCF-7 cells [3]; [11]): corresponds to that of apoptotic cells; cytotoxic effect (CCRF-CEM/ACT 400 cells): act in a cytotoxic manner; effect on cell cycle phases (SAOS-2 cells [4]; [12]): increases the G1 phase and decreases the S phase; morphology of treated cells (SAOS-2 cells [4]; [12]): corresponds to that of apoptotic cells; effect on cell cycle phases (SAOS-2 cells [5]): reduces the G1 phase and increases the S and G2/M phases; morphology of treated cells (SAOS-2 cells [5]): corresponds to that of apoptotic cells
NH2-KVLYFKRQIKIWFQNRRMKWKK-COOH (H-KVLYFKRQIKIWFQNRRMKWKK-OH) [P8]	corresponds to that of apoptotic cells	increases the G1 phase and the G2/M phase as well as decreases the S phase	–	–	–	–	–	–	–	–	–	–	–
NH2-LFYKKVPKKKRKV-COOH (H-LFYKKVPKKKRKV-OH) [P5]	–	–	reduces the G1 phase and increases the S phase	corresponds to that of apoptotic cells	reduce the S phase	54.0	13.6	32.4	increase of the G1 phase and a decrease of the S phase	73.5	13.3	13.2	–
NH2-LFYKKVRQIKIWFQNRRMKWKK-COOH (H-LFYKKVRQIKIWFQNRRMKWKK-OH) [P6]	corresponds to that of apoptotic cells	increases the G1 phase as well as decreases the S phase	reduces the G1 phase and increases the S phase	corresponds to that of apoptotic cells	reduce the S phase	53.7	18.6	27.7	increase of the G1 phase and a decrease of the S phase	76.6	11.2	12.2	G1 (cell population in G1 phase) (MCF-7 cells [1]; [14]): 48.7; G2/M (cell population in G2/M phase) (MCF-7 cells [1]; [14]): 14.6; S (cell population in S phase) (MCF-7 cells [3]; MCF-7 synchronized in G0/G1, stimulated by insulin 10^-6 M for 24 h, peptide 10^-5 M, FACS): 36.6
NH2-[dKdVdLdYdFdKGGG]4-[1KdRG]2-1KG-COOH (H-[dK][dV][dL][dY][dF][dK]GGG[dK][dV][dL][dY][dF][dK]GGG[dK][dV][dL][dY][dF][dK]GGG[dK][dV][dL][dY][dF][dK]GGGK[dR]GK[dR]GKG-OH; also: branched: four arms on polylysine core) [P7s, combination of dKdVdLdYdFdK, hydropathically homologous to P1, and a polylysine core]	corresponds to that of apoptotic cells	increases the G1 phase and the G2/M phase as well as decreases the S phase	–	–	–	–	–	–	–	–	–	–	–
